From US4189426A, “Recombinant hormonal compositions and method” (Hoffmann-La Roche, Inc., priority 1978, dated 1980)
Read-outs that look alike come from different tables or passages of the source. Starred links: 1 amine or outer side, 2 acyl side, 3 side chain; linkers in the order of their positions; H or OH if unused. Non-standard residues stand in square brackets, D forms with d. No end group written: not given here. Cys(Cam) = carboxamidomethylated cysteine, NC(=O)CSC[C@H](N[*:1])C(=O)[*:2]

Tests used:
rat tibia = rat tibia test (growth-promoting activity); assay type: in vivo; settings: for Response (tibia width): mean ± SEM; for Response (tibia width) / Rat tibia assay Response (tibia width): four animals; for Relative potency to HGH: Tables 5 and 8; for Response (rat tibia test): Table 7, total dose of 600 μg in 4 days, means ± S.E., four test animals; for Rat tibia assay Response (tibia width): Table 1, mean ± standard error; for growth-promoting activity, result in words: rat tibia test
Protocol: The growth-promoting activity of PL-HGH, the unpurified recombinant of Example 1 (fraction IV), [Cys(Cam)^53 -HGH-(1-134)], [Cys(Cam)^165, 182, 189 -HGH-(141-191)] and saline control were determined by the rat tibia test of Greenspan et al, Endocrinology 45, 455 (1949) and by the local crop-sac assay in the pigeon according to Lyons, Proc. Soc. Exp. Biol. 35, 645 (1937) and Nicoll, Endocrinology 80, 641 (1967).
(§1) Plasmin fragments of reduced-carboxamidomethylation HGH and HCS were obtained as described above. Exclusion chromatography of the reaction mixture was performed at 22° C. on a Sephadex G-100 column (1.5×60 cm) in 0.01 M NH4 HCO3 of pH 8.4. For radioimmunoassay, the double-antibody procedure using a guinea pig antiserum to native HGH was performed. The growth-promoting activity was determined by the rat tibia test.

pigeon crop-sac = test: local crop-sac assay in the pigeon (prolactin / lactogenic activity); assay type: in vivo; settings: for Dry mucosal weight: Table 4, pigeon crop-sac test; for Dry mucosal weight / Pigeon crop-sac assay Response (dry mucosal weight): mean ± standard error; for Pigeon crop-sac assay Response (dry mucosal weight): Table 1, four birds; for Response (dry mucosal weight): Table 10, mean ± SEM, number of birds in parentheses
Protocol: The growth-promoting activity of PL-HGH, the unpurified recombinant of Example 1 (fraction IV), [Cys(Cam)^53 -HGH-(1-134)], [Cys(Cam)^165, 182, 189 -HGH-(141-191)] and saline control were determined by the rat tibia test of Greenspan et al, Endocrinology 45, 455 (1949) and by the local crop-sac assay in the pigeon according to Lyons, Proc. Soc. Exp. Biol. 35, 645 (1937) and Nicoll, Endocrinology 80, 641 (1967). Amino acid compositions of acid and carboxypeptidase hydrolysates were determined in an automatic amino acid analyzer (model 120B, Beckman Instruments). For the analysis of tryptophan, the methanesulfonic acid hydrolysates were used. Amino-terminal residue and sequence analyses were preformed by the dansyl-Edman procedure. Isoelectric focusing was carried out in 8 M urea. Prolactin activity was estimated by the pigeon crop-sac assay. Microcomplement fixation experiments were performed with rabbit antisera to HCS. The gel-double-diffusion technique of Ouchterlony was done using 1% agar in 0.01 M phosphate buffer of pH 7.5. Exclusion chromatography of the purified fragments or the recombinant was performed on a Sephadex G-100 column (1.5×60 cm; V0 =35 ml) in 10 mM NH4 HCO3 (pH 8.4) at 21°. Circular dichroism (CD) spectra were obtained by a spectropolarimeter (Cary model 60) equipped with a circular dichroism attachment (model 6002). Microcomplement fixation was performed with the guinea pig antiserum to ovine prolactin. The gel double-diffusion technique of Ouchterlony was carried out with 1% agar in 10 mM phosphate buffer (pH 7.5). The prolactin activity was estimated by the local crop-sac assay in the pigeon.

rabbit antisera to HCS = test: microcomplement fixation; assay type: binding; settings: antiserum to HCS at a dilution of 1:5500; HCS at 10 ng
Protocol: (§2) Amino acid compositions of acid and carboxypeptidase hydrolysates were determined in an automatic amino acid analyzer (model 120B, Beckman Instruments). For the analysis of tryptophan, the methanesulfonic acid hydrolysates were used. Amino-terminal residue and sequence analyses were preformed by the dansyl-Edman procedure. Isoelectric focusing was carried out in 8 M urea. Prolactin activity was estimated by the pigeon crop-sac assay. Microcomplement fixation experiments were performed with rabbit antisera to HCS. The gel-double-diffusion technique of Ouchterlony was done using 1% agar in 0.01 M phosphate buffer of pH 7.5.

antisera to HCS = test: gel double-diffusion technique of Ouchterlony; assay type: binding, rabbit; settings: HCS 10 μg, small fragment 40 μg
Protocol: as §2

[1] = test system: guinea pig antiserum to native HGH; test: radioimmunoassay, double-antibody procedure; assay type: binding
Protocol: as §1

[2] = test system: guinea pig antiserum to ovine prolactin; test: microcomplement fixation; assay type: binding; settings: guinea pig antiserum to ovine prolactin at a dilution of 1:5000; 10 ng of the antigen
Protocol: (§3) Exclusion chromatography of the purified fragments or the recombinant was performed on a Sephadex G-100 column (1.5×60 cm; V0 =35 ml) in 10 mM NH4 HCO3 (pH 8.4) at 21°. Circular dichroism (CD) spectra were obtained by a spectropolarimeter (Cary model 60) equipped with a circular dichroism attachment (model 6002). Microcomplement fixation was performed with the guinea pig antiserum to ovine prolactin. The gel double-diffusion technique of Ouchterlony was carried out with 1% agar in 10 mM phosphate buffer (pH 7.5). The prolactin activity was estimated by the local crop-sac assay in the pigeon.

antiserum to prolactin = test: gel double-diffusion technique of Ouchterlony; assay type: binding
Protocol: as §3

[Cys(Cam)^ 53 ]-HGH(1-134) + [Nle^170, Ala^165, 182, 189 ]-HGH(140-191) [Recombinant III]
Response (tibia width) (rat tibia; Table 8, total dose 20 μg): 249.2 ± 9.2 micrometers
Response (tibia width) (rat tibia; Table 8, total dose 60 μg): 286.0 ± 2.1 micrometers
Relative potency to HGH (rat tibia; rat tibia assay): 100%

[Cys(Cam)^53 ]-HGH(1-134) + [Nle^170, Ala^165, 182, 189 ]-HGH(145-191) [Recombinant IV]
Response (tibia width) (rat tibia; Table 8, total dose 20 μg): 248.5 ± 7.7 micrometers
Response (tibia width) (rat tibia; Table 8, total dose 60 μg): 297.2 ± 10.0 micrometers
Relative potency to HGH (rat tibia; rat tibia assay): 113%

Cys(Cam)^165, 182, 189, -HCS-141-191
Dry mucosal weight (pigeon crop-sac; total dose 120 (mg)): 6.5 ± 1.4 mg
complement fixed (rabbit antisera to HCS): less than 10%
precipitin reaction (antisera to HCS): failed to give a precipitin reaction

[Nle^170, Ala^165,182,189 ]-HGH-(140-191)
Response (rat tibia test) (rat tibia): 197 ± 4.2 microns

Cys (Cam)^53 -HCS-(1-133) [N]
Dry mucosal weight (pigeon crop-sac; total dose 40 (mg)): 11.2 ± 0.7 mg
Dry mucosal weight (pigeon crop-sac; total dose 120 (mg)): 12.0 ± 0.9 mg
prolactin (lactogenic) activity, result in words (pigeon crop-sac; pigeon crop-sac assay): may have low activity but is much less than the native hormone
Response (tibia width) (rat tibia; Table 5, total dose 300 μg): 185.5 ± 1.7 micrometers
complement fixed (rabbit antisera to HCS): less than 10%
precipitin reaction (antisera to HCS): weak precipitin line which showed non-identity with the native hormone

Cys(Cam)^165,182,189 -HGH-(141-191) (QTYSKFDTNSHNDDALLKNYGLLY[Cys(Cam)]FRKDMDKVETFLRIVQ[Cys(Cam)]RSVEGS[Cys(Cam)]GF; UniProt P01241 167-217, looked up, fragment) [COOH-terminal plasmin fragment of reduced-carboxamidomethylated HGH, reference compound]
Pigeon crop-sac assay Response (dry mucosal weight) (pigeon crop-sac; total dose 20.3 nmol): 13.4 ± 1.2 mg
prolactin (lactogenic) activity, result in words (pigeon crop-sac; pigeon crop-sac assay): only a very small fraction of the comparative biological activities of the native human growth hormone
Rat tibia assay Response (tibia width) (rat tibia; total dose 9.78 nmol): 186.7 ± 4.4 micra
Response (rat tibia test) (rat tibia): 212 ± 7.3 microns
growth-promoting activity, result in words (rat tibia; 182, 189 HGH-(141-191)]): only a very small fraction of the comparative biological activities of the native human growth hormone
growth-promoting activity, result in words (rat tibia; listed as the 51 residue fragment): about nil

[Lys^135,136,138, Glu^137,139, Nle^170,Ala^165,182,189 ]-HGH-(135-191)
Response (rat tibia test) (rat tibia): 192 ± 3.5 microns

[Cys(Cam)^53 -HGH(1-134)] + [Recombinant I, [Cys(Cam)^53 -HGH(1-134)] + [Cys(Cam^165,182,189 -HCS-(141-191)]]
Response (tibia width) (rat tibia; Table 5, total dose 20 μg): 212.0 ± 4.7 micrometers
Response (tibia width) (rat tibia; Table 5, total dose 60 μg): 259.2 ± 2.9 micrometers
Relative potency to Cys(Cam)^53 HGH-(1-134) (rat tibia; rat tibia assay, Table 5): 491%
Relative potency to HGH (rat tibia; rat tibia assay): 50%
growth-promoting activity, result in words (rat tibia): significant growth-promoting activity
radioimmunoassay inhibition / cross-reaction compared with HGH, in words [1]: at low concentrations gave nearly identical inhibition to that of HGH
radioimmunoassay inhibition / cross-reaction compared with HGH, in words ([1]; listed as recombinant of Cys (Cam)^53 -HGH-(1-134) and Cys (Cam)^165, 182, 189 -HCS-(141-1)): nearly full immunoreactivity against the antiserum to HGH

Cys(Cam)^53 -HGH-(1-134) [reference compound]
Pigeon crop-sac assay Response (dry mucosal weight) (pigeon crop-sac; total dose 0.65 nmol): 9.6 ± 1.8 mg
Pigeon crop-sac assay Response (dry mucosal weight) (pigeon crop-sac; total dose 1.95 nmol): 12.4 ± 2.7 mg
prolactin (lactogenic) activity, result in words (pigeon crop-sac; pigeon crop-sac assay): only a very small fraction of the comparative biological activities of the native human growth hormone
Relative potency to PLHGH (pigeon crop-sac; pigeon crop-sac assay, Tables 1 and 2): less than 1%
Rat tibia assay Response (tibia width) (rat tibia; total dose 3.26 nmol): 207.2 ± 1.5 micra
Rat tibia assay Response (tibia width) (rat tibia; total dose 9.78 nmol): 235.5 ± 1.5 micra
Response (tibia width) (rat tibia; Table 5, total dose 150 μg): 231.2 ± 1.6 micrometers
Response (tibia width) (rat tibia; Table 5, total dose 450 μg): 275.0 ± 3.8 micrometers
Relative potency to PLHGH (rat tibia; rat tibia assay, Tables 1 and 2): 8%
growth-promoting activity, result in words (rat tibia): only a very small fraction of the comparative biological activities of the native human growth hormone
radioimmunoassay inhibition / cross-reaction compared with HGH, in words [1]: only a slight cross-reaction

[Nle^170, Ala^165,182,189 ]-HGH-(145-191)
Response (rat tibia test) (rat tibia): 189.5 ± 7.5 microns

human growth hormone [HGH]
Response (tibia width) (rat tibia; Table 5, total dose 20 μg): 242.8 ± 3.8 micrometers
Response (tibia width) (rat tibia; Table 5, total dose 60 μg): 282.8 ± 1.5 micrometers
Response (tibia width) (rat tibia; Table 8, total dose 20 μg): 245.0 ± 9.5 micrometers
Response (tibia width) (rat tibia; Table 8, total dose 60 μg): 290.2 ± 2.9 micrometers

[Cys(Cam)HCS-(1-133)] + [Recombinant II, [Cys(Cam)HCS-(1-133)] + [Cys(Cam)^165,182,189 -HGH-(141-191)]]
Response (tibia width) (rat tibia; Table 5, total dose 30 μg): 218.5 ± 9.8 micrometers
Response (tibia width) (rat tibia; Table 5, total dose 90 μg): 229.0 ± 4.1 micrometers
Relative potency to HGH (rat tibia; rat tibia assay): 10%
growth-promoting activity, result in words (rat tibia): less active in comparison with that of I
growth-promoting activity, result in words (rat tibia; listed as recombinant of Cys(Cam)^53 -HCS-(1-133) and Cys(Cam)^165, 182, 189 -HGH-(141-191)): measurable growth promoting activity but at a reduced level of potency than the aforesaid recombinants
antigen concentration needed to give the same degree of inhibition, relative to HGH [1]: at least 30 times
radioimmunoassay inhibition / cross-reaction compared with HGH, in words [1]: much less effective than HGH

B1: human chorionic somatomammotropin (protein, UniProt P0DML2 27-217, looked up)
Chorionic somatomammotropin …: VQTVPLSRLFDHAMLQAHRAHQLAIDTYQEFEETYIPKDQKYSFLHDSQTSFCFSDSIPTPSNMEETQQKSNLELLRISLLLIESWLEPVRFLRSMFANNLVYDTSDSDDYHLLKDLEEGIQTLMGRLEDGSRRTGQILKQTYSKFDTNSHNHDALLKNYGLLYCFRKDMDKVETFLRMVQCRSVEGSCGF
notes: native human choriomammotropin hormone
Dry mucosal weight (pigeon crop-sac; total dose 4 (mg)): 24.2 ± 2.9 mg
Dry mucosal weight (pigeon crop-sac; total dose 12 (mg)): 30.5 ± 3.7 mg
complement fixed (rabbit antisera to HCS): about 90%
precipitin reaction (antisera to HCS): single sharp precipitin line

B2: Prolactin: prolactin isolated from sheep pituitary glands (protein, UniProt P01240 31-229, looked up)
Prolactin: TPVCPNGPGNCQVSLRDLFDRAVMVSHYIHNLSSEMFNEFDKRYAQGKGFITMALNSCHTSSLPTPEDKEQAQQTHHEVLMSLILGLLRSWNDPLYHLVTEVRGMKGVPDAILSRAIEIEEENKRLLEGMEMIFGQVIPGAKETEPYPVWSGLPSLQTKDEDARHSAFYNLLHCLRRDSSKIDTYLKLLNCRIIYNNNC
Response (dry mucosal weight) (pigeon crop-sac; total dose 2 μg): 20.5 ± 0.9 mg
Response (dry mucosal weight) (pigeon crop-sac; total dose 6 μg): 45.2 ± 3.1 mg
complement fixed [2]: 98%
precipitin line (antiserum to prolactin): single precipitin line
